Data taken from patent US6355799B1, “Substituted benzene compounds, process for their preparation, and herbicidal and defoliant compositions containing them” (ISK Americas Incorporated, priority 1997, dated 2002).

How the values were obtained:
Assay type in all cases: in vivo
[1] = system: sicklepod (Cassia obtusifolia, CASOB); assay: Pre-emerge test, greenhouse herbicide activity screening; conditions: phytotoxicity rating 0-100, 14 days after application
In short: (§1)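 Sandy loam pots; pre-emerge: sown 1 d pre-spray, surface-watered after, then bottom-watered. Post-emerge: sown 8–21 d before, 2–3 leaf stage, + 0.25% v/v NIS, bottom-watered. Acetone, 187 l/ha track spray, 15–1000 g ai/ha. 0–100 injury score, day 14.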

[2] = system: ivyleaf morningglory (Ipomoea hederacea, IPOHE); assay: as above; conditions: phytotoxicity rating 0-100, 14 days after application
In short: as §1

[3] = system: green foxtail (Setaria viridis, SETVI); assay: as above; conditions: phytotoxicity rating 0-100, 14 days after application
In short: as §1

[4] = system: johnsongrass (Sorghum halepense, SORHA); assay: as above; conditions: phytotoxicity rating 0-100, 14 days after application
In short: as §1

[5] = system: velvetleaf (Abutilon theophrasti, ABUTH); assay: as above; conditions: phytotoxicity rating 0-100, 14 days after application
In short: as §1

[6] = system: lambsquarters (Chenopodium album, CHEAL); assay: as above; conditions: phytotoxicity rating 0-100, 14 days after application
In short: as §1

[7] = system: large crabgrass (Digitaria sanguinalis, DIGSA); assay: as above; conditions: phytotoxicity rating 0-100, 14 days after application
In short: as §1

[8] = system: barnyardgrass (Echinochloa crus-galli, ECHCG); assay: as above; conditions: phytotoxicity rating 0-100, 14 days after application
In short: as §1

[9] = system: redroot pigweed (Amaranthus retroflexus, AMARE); assay: as above; conditions: phytotoxicity rating 0-100, 14 days after application
In short: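 Herbicidal damage is scored 0 (none) to 100 (complete plant death) two weeks after a simulated field spray. Rates span 15–1000 g ai/ha, delivered in acetone at 187 l/ha. For post-emergence treatments, plants have 2–3 leaves and the spray carries 0.25% v/v non-ionic surfactant.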

[10] = system: field corn (Zea mays L., var. Dekalb 535, CORN); assay: Pre-emerge test, crop safety; conditions: crop damage rating 0-100, 14 days after application
In short: as §1

[11] = system: upland rice (Oryza sp., var. Tebonnet, RICE); assay: Pre-emerge test, crop safety; conditions: crop damage rating 0-100, 14 days after application
In short: as §1

[12] = system: field corn (Zea mays L., var. Dekalb 535, CORN); assay: Post-emerge test, crop safety; conditions: post-emerge, 14 days after application, rating scale 0-100
In short: as §1

[13] = system: upland rice (Oryza sp., var. Tebonnet, RICE); assay: Post-emerge test, crop safety; conditions: post-emerge, 14 days after application, rating scale 0-100
In short: as §1

[14] = system: sicklepod (Cassia obtusifolia, CASOB); assay: Post-emerge test, greenhouse herbicide activity screening; conditions: post-emerge, 14 days after application, rating scale 0-100
In short: (§2)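 Compounds in acetone were track-sprayed at 187 l/ha, 15–1000 g ai/ha, onto sandy loam pots. Pre-emerge seeds were sown one day before spraying, with surface watering afterwards. Post-emerge plants were at the 2–3 leaf stage and sprayed with 0.25% v/v non-ionic surfactant. Injury was rated 0–100 at 14 days.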

[15] = system: ivyleaf morningglory (Ipomoea hederacea, IPOHE); assay: as above; conditions: post-emerge, 14 days after application, rating scale 0-100
In short: as §2

[16] = system: green foxtail (Setaria viridis, SETVI); assay: as above; conditions: post-emerge, 14 days after application, rating scale 0-100
In short: as §2

[17] = system: johnsongrass (Sorghum halepense, SORHA); assay: as above; conditions: post-emerge, 14 days after application, rating scale 0-100
In short: as §2

[18] = system: velvetleaf (Abutilon theophrasti, ABUTH); assay: as above; conditions: post-emerge, 14 days after application, rating scale 0-100
In short: as §2

[19] = system: lambsquarters (Chenopodium album, CHEAL); assay: as above; conditions: post-emerge, 14 days after application, rating scale 0-100
In short: as §2

[20] = system: large crabgrass (Digitaria sanguinalis, DIGSA); assay: as above; conditions: post-emerge, 14 days after application, rating scale 0-100
In short: as §2

[21] = system: redroot pigweed (Amaranthus retroflexus, AMARE); assay: as above; conditions: post-emerge, 14 days after application
In short: as §2

[22] = system: barnyardgrass (Echinochloa crus-galli, ECHCG); assay: as above; conditions: post-emerge, 14 days after application, rating scale 0-100
In short: as §2

COc1c(Cl)cc(F)c(-n2c(=O)cc(C(F)(F)F)n(C)c2=O)c1NC(=O)OCc1ccc(F)cc1 [4-7]
60: Pre-emerge Herbicidal Activity CORN ([10]; 63 g ai/ha)
100: Pre-emerge Herbicidal Activity CASOB ([1]; 250 g ai/ha) | Pre-emerge Herbicidal Activity IPOHE ([2]; 250 g ai/ha) | Pre-emerge Herbicidal Activity SETVI ([3]; 63 g ai/ha) | Pre-emerge Herbicidal Activity SETVI ([3]; 250 g ai/ha) | Pre-emerge Herbicidal Activity ABUTH ([5]; 63 g ai/ha) | Pre-emerge Herbicidal Activity ABUTH ([5]; 250 g ai/ha) | Pre-emerge Herbicidal Activity CHEAL ([6]; 63 g ai/ha) | Pre-emerge Herbicidal Activity CHEAL ([6]; 250 g ai/ha) | Pre-emerge Herbicidal Activity DIGSA ([7]; 63 g ai/ha) | Pre-emerge Herbicidal Activity DIGSA ([7]; 250 g ai/ha) | Pre-emerge Herbicidal Activity AMARE ([9]; 63 g ai/ha) | Pre-emerge Herbicidal Activity AMARE ([9]; 250 g ai/ha) | Pre-emerge Herbicidal Activity RICE ([11]; 250 g ai/ha) | phytotoxicity rating CORN (crop damage) ([12]; 250 g ai/ha) | phytotoxicity rating CASOB ([14]; 63 g ai/ha) | phytotoxicity rating CASOB ([14]; 250 g ai/ha) | phytotoxicity rating IPOHE ([15]; 63 g ai/ha) | phytotoxicity rating IPOHE ([15]; 250 g ai/ha) | phytotoxicity rating SETVI ([16]; 250 g ai/ha) | phytotoxicity rating ABUTH ([18]; 63 g ai/ha) | phytotoxicity rating ABUTH ([18]; 250 g ai/ha) | phytotoxicity rating CHEAL ([19]; 63 g ai/ha) | phytotoxicity rating CHEAL ([19]; 250 g ai/ha) | phytotoxicity rating AMARE ([21]; 63 g ai/ha, rating scale 0-100 (0 no damage, 100 complete death)) | phytotoxicity rating AMARE ([21]; 250 g ai/ha, rating scale 0-100) | phytotoxicity rating ECHCG ([22]; 250 g ai/ha)
50: phytotoxicity rating ECHCG ([22]; 63 g ai/ha)
80: Pre-emerge Herbicidal Activity IPOHE ([2]; 63 g ai/ha) | Pre-emerge Herbicidal Activity SORHA ([4]; 63 g ai/ha)
40: phytotoxicity rating DIGSA ([20]; 63 g ai/ha)
65: phytotoxicity rating RICE (crop damage) ([13]; 63 g ai/ha)
70: Pre-emerge Herbicidal Activity CASOB ([1]; 63 g ai/ha) | Pre-emerge Herbicidal Activity ECHCG ([8]; 63 g ai/ha) | Pre-emerge Herbicidal Activity RICE ([11]; 63 g ai/ha) | phytotoxicity rating SETVI ([16]; 63 g ai/ha)
90: Pre-emerge Herbicidal Activity ECHCG ([8]; 250 g ai/ha) | phytotoxicity rating CORN (crop damage) ([12]; 63 g ai/ha) | phytotoxicity rating RICE (crop damage) ([13]; 250 g ai/ha) | phytotoxicity rating SORHA ([17]; 63 g ai/ha) | phytotoxicity rating SORHA ([17]; 250 g ai/ha) | phytotoxicity rating DIGSA ([20]; 250 g ai/ha)
95: Pre-emerge Herbicidal Activity SORHA ([4]; 250 g ai/ha) | Pre-emerge Herbicidal Activity CORN ([10]; 250 g ai/ha)
